Tests used:
[1] = test system: T1, human CMG helicase (Cdc45-MCM-GINS; Mcm2-7 ATPase core); assay: DNA fork-unwinding helicase assay, dose-dependent suppression; type: biochemical
T1 construct: 11-subunit hCMG holoenzyme co-expressed by baculovirus in insect cells (Cdc45, Mcm2-7, GINS); with Cdc45 and GINS (Sld5, Psf1, Psf2, Psf3)

[2] = test system: T2, Nc1ncnc2c1ncn2[C@@H]1O[C@H](COP(=O)(O)OP(=O)(O)OP(=O)(O)O)[C@@H](O)[C@H]1O; assay: helicase kinetics with increasing ATP (Km); type: biochemical, Homo sapiens; conditions: Mg2+ MCM ATPase clefts formed between adjacent MCM subunit pairs
T2 construct: 11-subunit hCMG holoenzyme co-expressed by baculovirus in insect cells (Cdc45, Mcm2-7, GINS); with Cdc45 and GINS (Sld5, Psf1, Psf2, Psf3)

Compound | DNA fork-unwinding helicase assay, dose-dependent suppression [1] | Km [2]
Nc1ncnc2c1ncn2[C@@H]1O[C@H](COP(=O)(O)OP(=O)(O)OP(O)(O)=S)[C@@H](O)[C@H]1O [ATP-γ-S] | dose-dependent suppression of fork-unwinding activity in the presence of slow-hydrolyzable ATP-γ-S | 
human CMG helicase (Cdc45-MCM-GINS; Mcm2-7 ATPase core) (Homo sapiens) |  | 690 µM
